Experimental findings from patent US20250186456A1, “PYRIMIDINE-FUSED CYCLIC COMPOUND AND PREPARATION METHOD AND USE THEREOF” (Genfleet Therapeutics (Shanghai) Inc., priority 2021, published 2025) are described below.

As a reminder, the IC50 is the concentration that inhibits the measured activity by half.

One test concerns p-ERK in AGS cells (KRAS G12D mutation). The test is described as follows: Cell p-ERK assay (HTRF, Advance ERK phospho-T202/Y204 kit). The test is classed as cell-based, human. To be noted: AGS cells, 3 hours incubation with compound, HTRF; read-out: AGS p-ERK IC50. How it is done:
AGS was purchased from ATCC; catalog No: CRL-1739; F12K was purchased from Gibco; catalog No: 21127-022; FBS was purchased from Gibco; catalog No: 10099-141C; trypsin (containing EDTA) was purchased from Gibco, catalog No: 25200-072; DMSO was purchased from VWRAMRESCO; catalog No: 0231-500 ML; 96-well cell culture plates were purchased from Corning; catalog No: 3599; white opaque 96-well plates were purchased from Cisbio; catalog No: 66PL96025; Advance ERK phospho-T202/Y204 kit was purchased from Cisbio; catalog No: 64AERPEH; cell counters were purchased from CHEMOMETEC; model No: NC-200; microplate reader was purchased from PerkinElmer; model No: Envison.
AGS is an endogenous human gastric adenocarcinoma cell line containing the KRAS^G12D mutation, cultured in F12K+10% FBS medium. On the first day of the experiment, cells in the logarithmic growth phase were taken, digested with trypsin (containing EDTA), collected, and counted. Approximately 20000 cells/well were seeded in a 96-well cell culture plate and cultured overnight in an incubator with 5% CO2. 1000X stock solutions of compounds at a 3.16-fold concentration gradient were prepared using DMSO, and diluted 200-fold into a 5X compound stock solution using the medium described above. The 5X compound stock solution was added to each cell culturing well the day after cell seeding at a final concentration of 1X and a DMSO content of 0.1%. DMSO was used as a control in the experiment. After the compound was added and the incubation was kept for 3 hours, the medium in the culture wells was removed. 50 μl of Cell lysis solution (from Advance ERK phospho-T202/Y204 kit, the same below) was added to each well, mixed well, and incubated for 30 minutes and then 16 μl of the mixed solution was transferred to a white opaque 96-well plate, another 16 μl of cell lysis solution was added to a well as a blank well. After transferring, 4 μl of p-ERK HTRF antibody mixture (from Advance ERK phospho-T202/Y204 kit) was added to each well. After incubation for 4 hours, HTRF fluorescence value (RLU) was read by a microplate reader, and p-ERK level inhibition rate (IR (%)=(RLU control-RLU compound)/(RLU control-RLU blank)×100%) of the compounds was calculated. The concentration of the compounds and corresponding cell p-ERK level inhibition rate were fitted using Prism 8 four-parameters method, and the IC50 value was calculated.
For `CCc1cccc2cc(O)cc(-c3cc4nc(OC[C@@]56CCCN5C[C@H](F)C6)nc5c4c(c3Cl)OC[C@@H]3[C@@H]4CC[C@H](CN53)N4)c12` [Example Z381, 4-((5aS,6S,9R)-3-Chloro-13-(((2R,7aS)-2-Fluorotetrahydro-1H-Pyrrolizin-7a (5H)-Yl)Methoxy)-5a,6,7,8,9,10-Hexahydro-5H-6,9-Epiminoazepino[2′,1′: 3,4][1,4]Oxazepino[5,6,7-De]Quinazolin-2-Yl)-5-Ethylnaphthalen-2-Ol], the IC50 was determined as 0.436 µM.

Still in this test, the particulars now being: Homo sapiens; AGS cells, 3 hours incubation with compound, HTRF; read-out: AGS p-ERK IC50.
As for `C#Cc1c(F)ccc2cccc(-c3nc4c5c(nc(OC[C@]67CCCN6C[C@@H]6C[C@@H]67)nc5c3F)N3C[C@H]5CC[C@H](N5)[C@H]3[C@H](C)O4)c12` [Example Z626-1, (5S,5aS,6S,9R)-2-(8-ethynyl-7-fluoronaphthalen-1-yl)-1-fluoro-12-(((1aR,6aR,6bS)-hexahydrocyclopropa[a]pyrrolizin-6a (4H)-yl)methoxy)-5-methyl-5a,6,7,8,9,10-hexahydro-5H-4-oxa-3,10a, 11,13, 14-pentaaza-6,9-methanonaphtho[1,8-ab]heptalene], the IC50 came out at 0.411 µM.

Take `C#Cc1c(F)ccc2cccc(-c3nc4c5c(nc(OCC67CC(=C)CN6C[C@@H]6C[C@@H]67)nc5c3F)N3C[C@H]5CC[C@H](N5)[C@H]3[C@H](C)O4)c12` (stereo partly drawn) [Example Z605, (5S,5aS,6S,9R)-2-(8-ethynyl-7-fluoronaphthalen-1-yl)-1-fluoro-5-methyl-12-(((1aR,6bS)-5-methylenehexahydrocyclopropa[a]pyrrolizin-6a (4H)-yl)methoxy)-5a,6,7,8,9,10-hexahydro-5H-4-oxa-3,10a,11,13,14-pentaaza-6,9-methanonaphtho[1,8-ab]heptalene]: the IC50 was 0.554 µM.

Consider `C#Cc1c(F)ccc2cccc(-c3nc4c5c(nc(OCC67CC(F)CN6CCC7=C)nc5c3F)N3C[C@H]5CC[C@H](N5)[C@H]3[C@H](C)O4)c12` (stereo partly drawn) [Example Z609, (5S,5aS,6S,9R)-2-(8-ethynyl-7-fluoronaphthalen-1-yl)-1-fluoro-12-((6-fluoro-1-methylenetetrahydro-1H-pyrrolizin-7a (5H)-yl)methoxy)-5-methyl-5a,6,7,8,9,10-hexahydro-5H-4-oxa-3,10a,11,13,14-pentaaza-6,9-methanonaphtho[1,8-ab]heptalene], for which the 50% inhibitory concentration (IC50) came to 0.0492 µM.

For the compound `C#Cc1cccc2c(N)ccc(-c3nc4c5c(nc(OCC67CC(=C)CN6C[C@H](F)C7)nc5c3F)N3C[C@H]5CC[C@H](N5)[C@H]3[C@H](C)O4)c12` (stereo partly drawn) [Example Z686, 5-ethynyl-4-((5S,5aS,6S,9R)-1-fluoro-12-(((2R)-2-fluoro-6-methylenetetrahydro-1H-pyrrolizin-7a (5H)-yl)methoxy)-5-methyl-5a,6,7,8,9,10-hexahydro-5H-4-oxa-3,10a,11,13,14-pentaaza-6,9-methanonaphtho[1,8-ab]heptalen-2-yl) naphthalen-1-amine], the IC50 is 0.447 µM.

Regarding `C#Cc1cccc2cc(N)cc(-c3nc4c5c(nc(OC)nc5c3F)N3C[C@H]5CC[C@H](N5)[C@H]3[C@H](C)O4)c12` [Example Z705, 5-ethynyl-4-((5S,5aS,6S,9R)-1-fluoro-12-methoxy-5-methyl-5a,6,7,8,9,10-hexahydro-5H-4-oxa-3,10a, 11,13,14-pentaaza-6,9-methanonaphtho[1,8-ab]heptalen-2-yl) naphthalen-2-amine], the IC50 stood at 0.195 µM.

`C#Cc1c(F)ccc2cccc(-c3nc4c5c(nc(OCC67CCCN6CC(=CF)C7)nc5c3F)N3C[C@H]5CC[C@H](N5)[C@H]3[C@@H](C)O4)c12` (stereo partly drawn) [Example Z630, (5R,5aS,6S,9R)-2-(8-ethynyl-7-fluoronaphthalen-1-yl)-1-fluoro-12-((2-(fluoromethylene)tetrahydro-1H-pyrrolizin-7a (5H)-yl)methoxy)-5-methyl-5a,6,7,8,9,10-hexahydro-5H-4-oxa-3,10a, 11, 13,14-pentaaza-6,9-methanonaphtho[1,8-ab]heptalene]: the IC50 was found to be 0.729 µM.

With `C=C1CN2C[C@H](F)CC2(COc2nc3c4c(nc(-c5nc(N)cc(C)c5C5CC5)c(F)c4n2)O[C@@H](C)[C@@H]2[C@@H]4CC[C@H](CN32)N4)C1` (stereo partly drawn) [Example Z676, 5-cyclopropyl-6-((5S,5aS,6S,9R)-1-fluoro-12-(((2R)-2-fluoro-6-methylenetetrahydro-1H-pyrrolizin-7a (5H)-yl)methoxy)-5-methyl-5a,6,7,8,9,10-hexahydro-5H-4-oxa-3,10a, 11, 13, 14-pentaaza-6,9-methanonaphtho[1,8-ab]heptalen-2-yl)-4-methylpyridin-2-amine], the 50% inhibitory concentration (IC50) is 0.07 µM.

As for `C#Cc1c(F)ccc2cccc(-c3nc4c5c(nc(OCC67CCCN6CC(=C)C7)nc5c3F)N3C[C@H]5CC[C@H](N5)[C@H]3CCO4)c12` (stereo partly drawn) [Example Z640, (6aR,7S, 10R)-2-(8-ethynyl-7-fluoronaphthalen-1-yl)-1-fluoro-13-((2-methylenetetrahydro-1H-pyrrolizin-7a (5H)-yl)methoxy)-5,6,6a,7,8,9,10,11-octahydro-4-oxa-3,11a, 12, 14, 15-pentaaza-7,10-methanocyclohepta[4,5]cycloocta[1,2,3-de]naphthalene], the IC50 turned out to be 0.0655 µM.

Turning to `C=C1CN2C[C@H](F)CC2(COc2nc3c4c(nc(-c5cccc6cccc(C#N)c56)c(F)c4n2)O[C@@H](C)[C@@H]2[C@@H]4CC[C@H](CN32)N4)C1` (stereo partly drawn) [Example Z673, 8-((5S,5aS,6S,9R)-1-fluoro-12-(((2R)-2-fluoro-6-methylenetetrahydro-1H-pyrrolizin-7a (5H)-yl)methoxy)-5-methyl-5a,6,7,8,9,10-hexahydro-5H-4-oxa-3,10a,11,13,14-pentaaza-6,9-methanonaphtho[1,8-ab]heptalen-2-yl)-1-naphthonitrile], the IC50 was 0.147 µM.

The test system of another test is AGS cells (KRAS G12D). The test can be described thus: Cell proliferation inhibition assay, 3D, CellTiter-Glo 3D, AGS. The test is classed as cell-based, human. To be noted: Homo sapiens, 120 h, AGS 3D sphere model, 5 days incubation. An excerpt: AsPC-1 was purchased from ATCC; catalog No: CRL-1682; AGS was purchased from ATCC; catalog No: CRL-1739; RPMI1640 was purchased from Gibco; catalog No: 11875-093 2235123; F12K was purchased from Gibco; catalog No: 21127-022; FBS was purchased from Gibco; catalog No: 10099-141C; trypsin (containing EDTA) was purchased from Gibco; catalog No: 25200-072; CellTiter Glo-3D was purchased from Progema; catalog No: G9683; 384-well sphere plates were purchased from Corning; catalog No: 3830; white opaque 384-well plates were purchased from Corning; catalog No: 3570; cell counters were purchased from CHEMOMETEC; model: NC-200; microplate reader was purchased from PerkinElmer; model: Envison;
AsPC-1 is an endogenous human pancreatic cancer cell containing KRAS^G12D mutation, cultured in RPMI-1640 medium containing 10% FBS; AGS is a human gastric cancer cell line containing KRAS^G12D, cultured in F-12K medium containing 10% FBS. Cells in the logarithmic growth phase were taken, digested with trypsin (containing EDTA), collected, and counted. 800 AsPC-1 cells/well or 400 AGS cells/well, respectively, were seeded in a 384-well sphere plate and cultured overnight at 5% CO2 to establish a 3D cell model. 1000X stock solutions of compounds at a 3.16-fold concentration gradient of were prepared using DMSO, diluted 100-fold into a 10X compound stock solution using the medium described above. The 10X compound stock solution was added to each cell on 2nd day after cell seeding at a final concentration of 1X and a DMSO content of 0.1%. DMSO was used as a control in the experiment, and the medium was used as blank. After the addition of the compounds, the cells were incubated for 5 days. 30 μl of CellTiter-Glo work solution was added to each well, mixed well, and incubated for 30 minutes. After standing at room temperature for 30 minutes, 40 μl of the mixed solution was transferred to an opaque 384-well plate with a white clear bottom. Luminescence chemiluminescence value was read by a microplate reader, and the cell proliferation inhibition rate (IR (%)=(RLU control-RLU compound)/(RLU control-RLU blank)×100%) was calculated. The gradiently diluted concentration of the compounds and corresponding cell proliferation inhibition rate were fitted using XLFit four-parameters method, and the IC50 value was calculated. […] The results of some exemplary compounds are shown in Table 2 (“−” represents untested).
(ATP-based viability assays read luminescence as a measure of living cells.)
Compound `C#Cc1c(F)ccc2cccc(-c3nc4c5c(nc(OC[C@]67CCCN6C[C@@H]6C[C@@H]67)nc5c3F)N3C[C@H]5CC[C@H](N5)[C@H]3[C@H](C)O4)c12` [Example Z626-1, (5S,5aS,6S,9R)-2-(8-ethynyl-7-fluoronaphthalen-1-yl)-1-fluoro-12-(((1aR,6aR,6bS)-hexahydrocyclopropa[a]pyrrolizin-6a (4H)-yl)methoxy)-5-methyl-5a,6,7,8,9,10-hexahydro-5H-4-oxa-3,10a, 11,13, 14-pentaaza-6,9-methanonaphtho[1,8-ab]heptalene] gave an IC50 of 0.502 µM.

The compound `C=C1CN2C[C@H](F)CC2(COc2nc3c4c(nc(-c5nc(N)cc(C)c5C5CC5)c(F)c4n2)O[C@@H](C)[C@@H]2[C@@H]4CC[C@H](CN32)N4)C1` (stereo partly drawn) [Example Z676, 5-cyclopropyl-6-((5S,5aS,6S,9R)-1-fluoro-12-(((2R)-2-fluoro-6-methylenetetrahydro-1H-pyrrolizin-7a (5H)-yl)methoxy)-5-methyl-5a,6,7,8,9,10-hexahydro-5H-4-oxa-3,10a, 11, 13, 14-pentaaza-6,9-methanonaphtho[1,8-ab]heptalen-2-yl)-4-methylpyridin-2-amine] registered an IC50 of 0.267 µM.

As to `CCc1cccc2cccc(-c3nc4c5c(nc(OC[C@@]67CCCN6C[C@H](F)C7)nc5c3F)N3C[C@H]5CC[C@H](N5)[C@H]3[C@H](CC)O4)c12` [Example Z592, (5S,5aS,6S,9R)-5-ethyl-2-(8-ethylnaphthalen-1-yl)-1-fluoro-12-(((2R,7aS)-2-fluorotetrahydro-1H-pyrrolizin-7a (5H)-yl)methoxy)-5a,6,7,8,9,10-hexahydro-5H-4-oxa-3,10a,11,13,14-pentaaza-6,9-methanonaphtho[1,8-ab]heptalene], the IC50 is 0.354 µM.
